The values below come from US20220373538A1, “COMPOSITION FOR DETERMINATION OF CELL-MEDIATED IMMUNE RESPONSIVENESS” (Lophius Biosciences GmbH, priority 2015, published 2022).

Read-outs that look alike come from different tables or passages of the source.

Holding throughout (format): cell-based, human
Assay [1] concerns PBMC. In words: IFN-γ ELISpot assay, one-step detection. The following applies: for IFN-γ secreting cells after stimulation with the single stimulant (in words) / number of IFN-γ secreting cells detected: single stimulant alone; for IFN-γ secreting cells after stimulation with the single stimulant (in words): collective of 10 donors, LPS 1 EU/ml; for number of IFN-γ secreting cells detected: donor d270.

In assay [2] the test system is PBMC. Put plainly: IFN-γ ELISpot assay, two-step detection. Conditions: for IL-12 concentration at which the number of IFN-γ secreting cells reached a maximum or plateau, IL-12 combined with the poly(I:C) variant: 10 μg/ml poly(I:C)-LMW, 1 μg/ml poly(I:C)-LMW/LyoVec, 1 μg/ml poly(I:C) (Enzo).
In assay [3] the test system is PBMC. Put plainly: IFN-γ ELISA, temporal course of IFN-γ release. Conditions: for start of IFN-γ secretion after stimulation: working concentrations, 0 to 24 hours. The protocol: The detection of secreted IFN-γ was performed with the test kit “BD OptEIA Human IFN-γ ELISA Set” from Becton, Dickinson and Company according to the recommended assay performance in the technical data sheet.
To ensure that the activation of the IFN-γ production by the tested stimulants occurred in the typical stimulation period of 19 hours, the temporal course of the IFN-γ secretion induced by the stimulants was determined over a period of 24 hours. For this purpose, at each time point PBMC adjusted to 2×10^5 lymphocytes of different donors have been stimulated by the determined working concentrations of the stimulants poly(I:C) in combination with IL-12. KRN7000 and CEFTv for 0 to 24 hours.
In specifically stimulated cells the determination of the IFN-γ production was made to 11 time points in an interval of 2 or 4 hours. In unstimulated cells (negative control) three measurements in interval of 6 and 12 hours were made. Upon completion of each stimulation period the cells of the stimulation preparation were centrifuged and the supernatant stored at −20° C. After all stimulations were finished the IFN-γ concentration of the supernatants has been determined by IFN-γ ELISA as described in example 3.

The test system of assay [4] is PBMC. In words: IFN-γ ELISpot assay (T-Track basic IFN-γ), PBMC of rheumatism patients. The following applies: patient P1, giant cell arthritis, 35 mg prednisolone equivalent daily; days 6 and 9.
The mark [5] stands for this setting: donor d022, a-Gal-Cer variants titrated, 19 h.

Take `CCCCCCCCCCCCCCCCCCCCCCCCCC(=O)N[C@@H](CO[C@H]1O[C@H](CO)[C@H](O)[C@H](O)[C@H]1O)[C@H](O)[C@H](O)CCCCCCCCCCCCCC` [KRN7000 (from Funakoshi)]: in the assay on PBMC [1] (setting [5]), the “concentration at which the number of IFN-γ secreting cells reached a maximum, plateau or saturation region” value (from here on “concentration … plateau or saturation region”) stood at 1 µg/mL. The “more IFN-γ secreting cells activated compared with KRN7000 (from Enzo)” value in the assay with PBMC [1] (donor d248, saturation region) is 100%. The “IFN-γ secreting cells after stimulation (in words)” value with PBMC [2] (donor d242, a-Gal-Cer variants) is on record as “highest number of IFN-γ secreting cells”. In the assay with PBMC [3] (donor d022), the “time at which IFN-γ secretion reached a plateau or maximum” value was 12 h and the “start of IFN-γ secretion after stimulation” value came out at 8 h. In the assay with PBMC [3] (donor d248), the “time at which IFN-γ secretion reached a plateau or maximum” value stood at 18 h and the “start of IFN-γ secretion after stimulation” value was determined as 2 h. Further, the “IFN-γ release in PBMC, comparison of stimulants (in words)” value with PBMC [3] (summary of donors) is recorded as “weakest IFN-γ activating properties”.
Turning to `NC(N)=O` [urea], the “IFN-γ secreting cells after stimulation with the single stimulant (in words)” value in the assay on PBMC [1] is listed as “did not result in a IFN-γ secretion”. For the same molecule, the “influence of urea on IFN-γ secreting cells induced by 1 μg p.p./ml CEFTv (in words)” value in the assay with PBMC [2] (donor d034) was “only improved by a 24 hours pre-incubation of CEFTv or directly added urea”; in the assay with PBMC [2] (donor d204, CEFTv pre-incubated for 48 hours in urea buffer) it was “deterioration of the stimulation at 100 mM and an improvement at 150 mM”; in the assay on PBMC [2] (donor d204, without pre-incubation), “no improvement”. In addition, the “urea concentration up to which the IFN-γ secreting cells increased” value in the assay with PBMC [2] (donor d204, CEFTv pre-incubated in urea buffer for 24 hours) is given as 12.5 mM.
With `CCCCCCCCCCCCCCCCCCCCCCCCCC(=O)N[C@@H](CO[C@H]1O[C@H](CO)[C@H](O)[C@H](O)[C@H]1O)[C@H](O)[C@H](O)CCCCCCCCCCCCCC` [KRN7000 (from Enzo)], the “concentration … plateau or saturation region” value in the assay with PBMC [1] (setting [5]) worked out at 3 µg/mL. Further, the “IFN-γ secreting cells after stimulation (in words)” value in the assay on PBMC [2] (donor d022, a-Gal-Cer variants) was “highest number”.
“polyinosinic:polycytidylic acid [poly(I:C)]”: the “number of IFN-γ secreting cells detected” value in the assay with PBMC [1] is given as “over 270 IFN-γ secreting cells”.
With “polyinosinic:polycytidylic acid [poly(I:C) (from Enzo)]”, in the assay with PBMC [1], the “change of the number of IFN-γ secreting cells by IL-12 in combination with the poly(I:C) variant (in words)” value is “very low increase”. Besides, in the assay with PBMC [1], the “concentration … plateau or saturation region” value is recorded as “around 0.3 μg/ml”. The “IFN-γ secreting cells after stimulation (in words)” value in the assay on PBMC [1] (donor d042, […]) is on record as “activation of IFN-γ secreting PBMC”; in the assay on PBMC [2] (donor d098, poly(I:C) variants) it was “without reaching a plateau”. For the same molecule, the “number of IFN-γ secreting cells exceeding the plateau of poly(I:C)-LMW” value in the assay with PBMC [1] (donor d098, at highest concentration tested of 10 μg/ml) is on record as “more than 100%”. Further, in the assay with PBMC [1] (summary of one-step and two-step detection), the “ranking of activation of IFN-γ secreting cells in culture of human PBMC” value was “highest activation of IFN-γ secreting cells”. In addition, the “IL-12 concentration at which the number of IFN-γ secreting cells reached a maximum or plateau, IL-12 combined with the poly(I:C) variant” value in the assay with PBMC [2] (donor d022) amounted to 0.01 µg/mL; with PBMC [2] (donor d098), 0.001 µg/mL; in the assay on PBMC [2] (donor d248) it was 0.01 µg/mL.
As to `C[C@]12C=CC(=O)C=C1CC[C@@H]1[C@@H]2[C@@H](O)C[C@@]2(C)[C@H]1CC[C@]2(O)C(=O)CO` [prednisolone], the “course of cocktail-reactive IFN-γ producing cells under treatment (in words)” value in the assay with PBMC [4] is given as “continuous drop in the numbers of cocktail-reactive IFN-g-producing cells”.
lipopolysaccharide [LPS]: the “effect of combination of LPS with CEFTv (in words)” value in the assay with PBMC [1] was “synergistic induction of IFN-γ secreting NK cells”. For the same molecule, the “stimulation ability of CEFTv on simultaneous administration of LPS (in words)” value with PBMC [1] (all three tested donors d204, d237, d254) is “did not result in an improvement”. The “IFN-γ secreting cells after stimulation (in words)” value with PBMC [1] (donor d204 (CMV-/EBV-seropositive), CEFTv / LPS matrix) is listed as “high numbers of IFN-γ secreting cells”; with PBMC [1] (donor d237 (CMV-seronegative/EBV-seropositive), CEFTv / LPS matrix), “high numbers of IFN-γ secreting cells”; with PBMC [1] (donor d254 (CMV-/EBV-seropositive), CEFTv / LPS matrix), “low numbers of IFN-γ secreting cells”. The “LPS concentration at which stimulated PBMC reached a maximum” value with PBMC [1] (donor d219, LPS in combination with CEFTv) worked out at 1 EU/ml. Also, the “LPS concentration as from which IFN-γ secreting cells increased” value is listed as 3.2 EU/ml in the assay on PBMC [1] (donor d237, LPS in combination with CEFTv) and 3.2 EU/ml in the assay with PBMC [1] (donor d241, LPS in combination with CEFTv). Besides, the entries for the “LPS concentration as from which LPS alone induced a low secretion of IFN-γ” value in the assay with PBMC [1] (donor d241) and in the assay with PBMC [1] (donor d254) were 10 EU/ml and 100 EU/ml, respectively. Further, the “threshold for LPS at which even no IFN-γ secreting cells have been detected” value in the assay with PBMC [1] (donors d204, d237, d254) is reported as 1 EU/ml. The “IFN-γ secreting cells after stimulation with the single stimulant (in words)” value in the assay with PBMC [1] is on record as “barely detected”. In the assay with PBMC [1], the “number of IFN-γ secreting cells detected” value is “high number of IFN-γ secreting cells”. For the same molecule, in the assay with PBMC [2] (LPS 1 EU/ml), the “own stimulating effect of LPS (in words)” value is recorded as “no own detectable stimulating effect”. For the same molecule, in the assay with PBMC [2] (summary of four donors), the “stimulation ability of CEFTv on addition of LPS (in words)” value was “could not have been improved”.
